Structure (SMILES) | melting point
COC(=O)COc1ccc(C(=O)NC(=O)Nc2ccc(C(N)=S)cc2)cc1 | 215 to 218 °C
CC(C)C1N(C)CCCN1C(=O)NC(C)C1CC(N=C=O)CC(C)(C)C1 (stereo not drawn) | 180 to 192 °C
Nc1c(C(=O)c2cccc(S(N)(=O)=O)c2)[nH]c2cc(Cl)ccc12 | 125 to 127 °C
C[C@@H]1N(C(=O)OC(C)(C)C)C(=O)C[C@]1(C)O | 122 to 125 °C
CC(C)(C)c1cc(NC(=O)c2cncc3cc(Oc4cc(N)ncn4)ccc23)n(-c2ccc(F)cc2)n1 | 124 to 126 °C
C[C@@H]1S[C@@H](C(=O)Nc2ccc(CC3OC(=O)NC3=O)cc2)Cc2cc3c(cc2C1=O)OCO3 (stereo partly drawn) | 164 to 166 °C
CC(C)c1cccc(C(C)C)c1NC(=O)NCC1(c2ccc(N(C)C)cc2)CCCC1 | 132 to 133 °C
Oc1cccc(C(O)CCCCCOc2cccc(Cl)c2)c1 (stereo not drawn) | 125 to 127 °C
COc1cccc(OC)c1C(=O)Nc1nnc(-c2ccc(NC(C)=O)cc2)s1 | 211 to 213 °C
COc1ccc(CN(C)CCOc2ccc(NC(=O)c3cccc4c(=O)c5cccc(OC)c5[nH]c34)c(C)c2)cc1OC | 178 to 179 °C
O=S(=O)(Cc1ccc(O)cc1)Cc1ccc(O)cc1 | 92 °C
OCCCCCCCCCCCCCCCCN(CCO)CCO | 67.6 to 68.8 °C
CC(C)(C)c1cc(NC(=O)NNC(=O)c2ccc(N)cc2)cc(C(C)(C)C)c1O | 245 to 246 °C
CC(O)(c1cccc(Cl)c1)c1cc(Cl)ccc1O (stereo not drawn) | 125 °C
Cc1nc(NC(=O)c2cnn3c(C(F)(F)F)cc(-c4ccc(C(F)(F)F)cc4)nc23)sc1S(N)(=O)=O | 303 °C
CC(C)NC1=NS(=O)(=O)c2cc([N+](=O)[O-])ccc2N1 | 311 to 313 °C
Cn1c(C(F)(F)F)cc(=O)n(-c2ccc(OCc3ccc(Cl)cc3)cc2F)c1=O | 134 to 135 °C
O=C1C(=CO)C(c2ccc(Cl)cc2Cl)c2c(Cl)cc(Cl)cc21 (stereo not drawn) | 189 to 191 °C
O=C(N[C@H]1C[C@H](C(=O)O)Nc2cc(Cl)cc(Cl)c21)C1c2ccccc2-c2ccccc21 (relative stereo) | 266 to 268 °C
CC(C)(C)OC(=O)n1ccc2c3[nH]c(CO)nc3ccc21 | 152 °C
CCCCCCCCCCCCCCCCCCOc1cccc(C(=O)O)c1OCCCOc1ccc(O)cc1 | 81 to 83 °C
COc1ccc(OCCCCCN2CCN(Sc3ccc[nH]3)CC2)cc1 | 83 to 85 °C

Structure (SMILES) | melting point
CCCc1nc(C(C)(O)CC)c(C#N)[nH]1 (stereo not drawn) | 157 to 159 °C
CC(C)CCOc1c(-c2ccc(S(N)(=O)=O)cc2)cnn(C(C)(C)C)c1=O | 153 to 155 °C
COc1ccc2cc(-c3ccc(OCC(O)CNC(C)C)c(OC)c3)n(C)c(=O)c2c1 (stereo not drawn) | 144 to 146 °C
CCOC(=O)[C@@H](NS(=O)(=O)c1ccc(N2CCC(=O)CC2)cc1)C(C)C | 77 to 80 °C
C[C@]1(CN2CCN(c3ccc(C(=O)O)cc3)CC2)Cn2cc([N+](=O)[O-])nc2O1 | 248 to 252 °C
O=C(O)COc1ccc(SSc2ccc(OCC(=O)O)c(Br)c2)cc1Br | 146 to 150 °C
CN(C)CCc1nc(C(N)=O)c2n1-c1ccc(Cl)cc1C(c1ccccc1Cl)=NC2 | 249 to 251 °C
O=C(O)C(CC1CCCCC1)NC(=O)C(CS)C(F)(F)F (stereo not drawn) | 116 to 118 °C
CC1CC2C3CCC4=CC(=O)C=CC4(C)C3(F)C(O)CC2(C)C1(O)C(=O)COC(=O)OCc1ccccc1[N+](=O)[O-] (stereo not drawn) | 203 to 204 °C
CCCCCCCCCCCCn1nnc(CCC(=O)Nc2c(OC)cc(OC)cc2OC)n1 | 86 to 88 °C
CCCCN1CC=C(c2cccc3c2CC(=O)N3)CC1 | 110 to 111 °C
O=C(Nc1cc(F)c(Cl)nc1C1CCN(CC=Cc2ccc(Cl)cc2)CC1)c1ccnc(Cl)c1 | 71 to 73 °C
Cc1nn(C)c(CBr)c1Oc1cc(Cl)cc(C#N)c1 | 76 to 78 °C
Cc1ccc(-c2ccc3c(c2)C=C(C(=O)Nc2ccc(CSC4CCCCC4)cc2)CCO3)cc1 | 161 to 162 °C
O=c1cc(N2CCOCC2)oc2ccccc12 | 143 °C
COc1c(C)c2c(c(C)c1NC(=O)CC(C)(C)C)C(c1ccc(C(C)C)cc1)CO2 (stereo not drawn) | 162 to 163 °C
COc1ccc(NC(=O)C2CC2)cn1 | 130 to 131 °C
Cc1ccc(S(=O)(=O)N(C)c2ccc(S(C)(=O)=O)cc2C#N)cc1 | 179 to 180 °C
CNC(=O)Oc1ccc(NC(=O)C(C)Oc2ccccc2)c(C)c1 (stereo not drawn) | 123 to 125 °C
Cc1c(CCC(=O)O)oc2cccc(O)c12 | 114 to 117 °C
CCCCCCn1c(=O)c2cn(CC)nc2n(C)c1=O | 107 to 108 °C
CN(C(=O)c1ccccc1C(c1ccc(O)cc1)c1ccc(O)cc1)c1ccccc1 | 246 to 247 °C

Structure (SMILES) | melting point
CSc1ccc(CSc2nnc(-c3ccc4ncsc4c3)o2)cc1C(F)(F)F | 122 to 123 °C
CCOC(=O)c1cc2cc(C)c(C)cc2[nH]1 | 164 °C
CON(C)C(=O)c1cc(C)c(C(c2cc(F)ccc2F)S(=O)(=O)c2ccc(F)cc2)cn1 (stereo not drawn) | 156 to 158 °C
C[C@@H](S[C@H]1CO[C@H](/C=C/c2cccnc2)OC1)[C@](O)(Cn1cncn1)c1ccc(F)cc1F | 118 to 125 °C
Cc1ccncc1-c1cc2ccncc2c(N)n1 | 280 to 282 °C
CCNC(=S)NNC(=O)C(F)(F)F | 170 °C
CC(=O)Nc1cccc(C(C)=O)c1C(=O)O | 131 °C
CC(=O)Nc1ccc(C)c2c1C(=O)CCN2CC#N | 190 to 193 °C
Cn1ccc(CNC(=O)c2ccnc(N3CCN(Cc4ccc(F)cc4)C3=O)c2)n1 | 79 to 81 °C
O=c1oc2cc(O)c(O)cc2c2c1CN(CCN1CCOCC1)CC2 | 299 to 302 °C
CNC(=O)c1ccc(N2CCN(Cc3cc(C)c4c(c3)NC(=O)C(C)O4)CC2)c(Cl)c1 (stereo not drawn) | 232 °C
CC12CCC3(CC1CCC1C2CCC2(C)C1CC(O)C2N=[N+]=[N-])OCCO3 (stereo not drawn) | 112 to 116 °C
CCOC(=O)C(=O)NNC(=O)c1cc(C)cc(C)c1 | 159 °C
CC(C)(C)OC(=O)N1CCC(Oc2ccc(-c3cn[nH]c(=O)c3)cc2)CC1 | 222 to 223 °C
O=C1C=C/C(=C/c2ccc(C(F)(F)F)cc2)O1 | 92 to 94 °C
CCn1cc(C(=O)O)c(=O)c2cnc(N3CCN(CC(C)O)CC3)nc21 (stereo not drawn) | 214 to 216 °C
CC(C)Nc1c(-c2c(F)cc(F)cc2F)c(F)nc2nccnc12 | 127 to 128 °C
FC1(N2CCOCC2)C=C(Cl)C=CC1NC(=S)C1C=CCCC1 (stereo not drawn) | 86 to 88 °C
CCN(CC)C(=O)c1ccc(Nc2nc(OCC3CCCCC3)c3nc[nH]c3n2)cc1 | 138 to 140 °C
CCOC(=O)NC1N=C(c2ccc(Cl)cc2)c2oc3ccccc3c2NC1=O (stereo not drawn) | > 260 °C
O=c1ccc2nc3ccc(F)cc3sc-2c1Cl | 250 to 255 °C
Cc1cccc(NC(=O)Nc2cccc3c2C2CC(=O)CCN2C3=O)n1 (stereo not drawn) | 226 to 228 °C

Second part, the molecule after the results:

melting point | Structure (SMILES)
130 to 132 °C | O=C(C=Cc1ccccc1)N1CCc2c([nH]c3ccccc23)C1c1ccccc1 (stereo not drawn)
218 °C | CCCc1nc(SC)nc(O)c1Cc1ccc(-c2ccccc2C#N)cc1
67 to 68 °C | CCc1nccn1N=Cc1ccccc1
167 to 168 °C | CNC(CC(=O)O)c1ccccc1 (stereo not drawn)
110 to 112 °C | Cc1ccccc1-c1nsc(SN)n1
307 to 308 °C | CCCc1c(C2=NN=C(C)Cc3cc4[nH]c(=O)oc4cc32)sc2ccccc12
133 to 134 °C | Oc1c2c(nn1-c1ccccn1)CCc1cc(-c3ccccc3)ccc1-2
171 to 172 °C | COc1ccccc1Oc1cccc2c1OC(=O)C2
92 to 93 °C | O=C1CCc2cc(Oc3ccccc3)ccc21
56 to 57 °C | O=C(C(=O)c1cccnc1)c1ccccc1
75 to 77 °C | CCOC(=O)CC(=O)c1ccc(-c2ccccc2)cc1
273 °C | O=C(O)c1ccccc1C(=O)c1ccc(O)c(-c2ccccc2)c1
140 to 142 °C | O=C(O)C(O)c1ccccc1Nc1c(Cl)cccc1Cl (stereo not drawn)
277 to 281 °C | O=C(Nc1ccc2nc(S)[nH]c2c1)C(=O)N1CCC(Cc2ccccc2)CC1
265 to 266 °C | O=c1[nH]ccc2cc3cccnc3n12
221 °C | CCC(=S)C1=C(C)NC2=C(C(=O)c3ccccc32)C1c1ccccc1[N+](=O)[O-] (stereo not drawn)
108 to 110 °C | C=CC(=O)N1CCSc2ccccc2C1
109 to 111 °C | NCCCc1ccc(OCCC2Oc3ccccc3N(Cc3cccc(Cl)c3)C2=O)cc1 (stereo not drawn)
145 to 146 °C | CNC(=O)Cc1cccc(C(=O)c2ccccc2)c1N

melting point | Structure (SMILES)
147 to 149 °C | Cc1ccc(S(=O)(=O)N2C3=NC(C)(C)N(C)C(=O)N3c3ccccc32)cc1
176 to 178 °C | CC1(C)N=C(S)N=C(NC(=O)c2ccccc2)N1
62 to 64 °C | CCOC(=O)c1[nH]cc(C)c1-c1ccccc1
199 to 203 °C | Nc1ccc(C(=O)C(O)c2ccccc2)cc1 (stereo not drawn)
183 to 184 °C | O=C(O)Cc1ccc(OCCNCC(O)c2ccccc2)cc1 (stereo not drawn)
92 to 93 °C | ClC1=NN(c2ccccc2)CC1
135 to 136 °C | COc1cc(CCCCC2OC(=O)NC2=O)ccc1OCc1nc(-c2ccccc2)oc1C (stereo not drawn)
196 to 198 °C | Clc1cc(Nn2cccc2)ncn1
236 to 237 °C | CC(C(=O)O)n1cc(-c2ccccc2)c(=O)c(-c2cccc(C(F)(F)F)c2)c1 (stereo not drawn)
322 to 333 °C | c1ccc(-c2ncc(-c3n[nH]c(-c4cccnc4)n3)cn2)cc1
178 to 181 °C | O=C(O)c1cc(=O)c(Sc2ccccc2)co1
107 °C | CCOC(=O)C(=CC=CN(CC)CCO)S(=O)(=O)c1ccccc1
105 to 109 °C | O=C(CCn1ccnc1)c1ccc(Cl)cc1Cl
91 °C | CCC(=O)N(Cc1cccc(-c2ccccc2)c1)c1cccc(-c2nnn[nH]2)c1
127 to 128 °C | O=S(=O)(N[C@H](CO)c1ccccc1)c1ccc(Cl)cc1
77 to 78 °C | Cc1ccccc1C(=NO)C(=O)OC(C)C
197 to 200 °C | O=C(O)c1ncn2c1CN(C(=O)N1CCCC1)c1ccccc1-2
209 to 211 °C | CSc1nc2sccc2c2nnc(SCc3ccccc3)n12

Reference: a melting point compilation (Tetko et al.; mined from patent text by program, amines drawn as free bases though some values may be those of a salt)
